Data as given in patent publication US20100093613A1, “METHODS FOR IDENTIFYING AGENTS AND THEIR USE FOR THE PREVENTION OR STABILIZATION OF FIBROSIS” (priority 2007, published 2010).

What was measured:
[1] = tested on: Peripheral Blood Mononuclear Cells + Umbilical Vein Endothelial Cells; test: BioMAP LPS system (TLR4), scoring of readout parameters; format: cell-based, human; conditions: LPS (by position); desired change decrease
From the text: (§1) Each screened compound is scored according to its modulation of the selected readout parameters. Compounds receive a positive score (score of 1) or negative score (score of 0) for each readout parameter set forth in Table 2 that is modulated in the desired direction. […] Parameters may be penalized by making the positive score a −1 for parameters where regulation is opposite to the desired direction.
(§2) Cell culture. Human umbilical vein endothelial cells (HUVEC) were pooled from multiple donors, cultured according to standard methods, and plated into microtiter plates at passage 4. Cell culture medium for all systems containing HUVEC included hydrocortisone. Coronary artery smooth muscle cells (CASM3C) and umbilical artery smooth muscle cells (HSM3C) were cultured according to standard procedures. Peripheral blood mononuclear cells (PBMC) were prepared from buffy coats from normal human donors according to standard methods. Monocyte-derived macrophages were differentiated in the presence of M-CSF for 7 d according to standard procedures. Human dermal fibroblasts were pooled from 3 donors, cultured according to standard methods, and plated confluent 24 h before stimulation. Cell culture medium for all systems containing fibroblasts and keratinocytes contained low hydrocortisone. Epidermal keratinocytes and bronchial epithelial cells from 3 donors were cultured according to standard procedures and pooled when plated into microtiter plates. For keratinocyte-fibroblast co-cultures, cells were plated simultaneously 24 h before stimulation. For bronchial epithelial cell-fibroblast co-cultures, fibroblasts were plated and cultured 48 before addition of epithelial cells, then cultured another 24 hr before stimulation. Concentrations/amounts of agents added to confluent microtiter plates to build each system: cytokines (IL-1β, 1 ng/ml; TNF-α, 5 ng/ml; IFN-γ, 20 ng/ml; IL-4, 5 ng/ml), activators (SAg, 20 ng/ml; histamine, 10 μM; zymosan, 10 μg/ml; or LPS, 2 ng/ml), growth factors (TGF-β, 5 ng/ml; EGF, bFGF, and PDGF-BB, 10 ng/ml), and PBMC (7.5×10^4 cells/well) or macrophages (3.5×10^4 cells/well).
(§3) Compounds. Compounds were prepared in the solvent directed, added 1 hr before stimulation of the cells, and were present during the 24 hr stimulation period for the measurement of parameters listed in Table 2. For proliferation, compounds added 1 hr before stimulation of the cells with cytokines, and were present during the 48 to 72 hr assay. If prepared in DMSO, the final concentration of solvent was 0.1% or less.
(§4) Readout Parameter Measurements. The levels of readout parameters were measured by ELISA. Briefly, microtiter plates are treated, blocked, and then incubated with primary antibodies or isotype control antibodies (0.01-0.5 microg/ml) for 1 hr. After washing, plates were incubated with a peroxidase-conjugated anti-mouse IgG secondary antibody or a biotin-conjugated anti-mouse IgG antibody for 1 hr followed by streptavidin-HRP for 30 min. Plates were washed and developed with TMB substrate and the absorbance (OD) was read at 450 nm (subtracting the background absorbance at 650 nm). Quantitation of TNF-alpha or PGE2 in the LPS system was done using a commercially available kit according to the manufacturer's directions. Proliferation of endothelial cells (HUVEC and CAEC), smooth muscle cells (SMC and CASMC), and PBMC (T cells) was quantitated by Alamar Blue reduction or SRB.
(§5) Data analysis. Mean OD values for each parameter were calculated for compounds run in duplicate. The mean value (or single well OD value) for each parameter in a treated sample was then divided by the mean value from an appropriate control to generate a ratio. All ratios were then log10 transformed. 95% significance prediction envelopes (grey shading in Figures) were calculated for historical controls.

Fibroblasts [2] = test: BioMAP HDF3CT system (IL-1β + TNF-α + IFN-γ + TGF-β), scoring of readout parameters; format: cell-based, human
From the text: as §1, §2, §3, §4, §5

human primary cells = test: Total score for desired parameter modulation over the BioMAP systems of Table 1; format: cell-based; conditions: penalties not applied
From the text: as §1
The relative importance of each parameter may be weighted by the screener to select those parameters of greatest interest for a particular application.
(§6) Compounds were first selected to inhibit PAI-1 in the HDFT as an indication of TBF-b signaling inhibition without being cytotoxic. […] Blank spots in Table 3 were where parameter was not assayed. Penalties were not applied for this scoring.
BioMAP Systems are designed to model complex human disease biology in a practical in vitro format. This is achieved by stimulating human primary cells (single cell type or defined mixtures of cell types) such that multiple disease-relevant signaling pathways are simultaneously active. The choice of cell types and stimulations is guided by the knowledge of disease biology and mechanisms. Incorporating appropriate cell types and stimulating signaling pathways relevant to disease states allows association of biological activities detected in BioMAP Systems with disease processes. Drug effects are then recorded by measuring biologically meaningful protein readouts that provide coverage of biological space of interest (e.g., inflammation, tissue remodeling) and allow discrimination between different drug classes tested.
as §2, §3
Readout Parameter Measurements. The levels of readout parameters were measured by ELISA.

[3] = tested on: Bronchial epithelial cells; test: BioMAP BE4T system (IL-4 + TNF-a), scoring of readout parameters; format: cell-based, human; parameters: key: 1 = modulated in desired direction, 0 = not (−1 = opposite); conditions: for PAI-1 score: desired change decrease; for EGFR score: desired no change or increase
Procedure: In the “BE4T” system, bronchial epithelial cells, usually primary human bronchial epithelial cells, are cultured in the presence of TNF-α and IL-4.
as §1, §2, §3, §4, §5

Fibroblasts [4] = test: BioMAP HDFT system (TGF-β), scoring of readout parameters; format: cell-based, human; parameters: key to PAI-1 score: 1 = modulated in desired direction, 0 = not (no penalties applied); conditions: for PAI-1 score: HDFT, desired change decrease; for inhibit PAI-1 in the HDFT system: indication of TGF-b signaling inhibition without being cytotoxic
From the text: as §1, §6, §2, §3, §4
Data analysis. Mean OD values for each parameter were calculated for compounds run in duplicate. The mean value (or single well OD value) for each parameter in a treated sample was then divided by the mean value from an appropriate control to generate a ratio.

[5] = tested on: Bronchial epithelial cells; test: BioMAP BE3C system (IL-1β + TNF-α + IFN-γ), scoring of readout parameters; format: cell-based, human; conditions: for PAI-1 score: desired change decrease; for EGFR score: desired no change or increase
From the text: as §1, §2, §3, §4, §5

[6] = tested on: Umbilical Vein Endothelial Cells; test: BioMAP 3C system (IL-1β + TNF-α + IFN-γ), scoring of readout parameters; format: cell-based, human; conditions: for HLA-DR score: desired change decrease; for uPAR score: desired change increase
From the text: as §1, §2, §3, §4, §5

Fibroblasts [7] = test: BioMAP HDF3CGF system (IL-1β + TNF-α + IFN-γ + EGF + bFGF + PDGFbb), scoring of readout parameters; format: cell-based, human; conditions: for PAI-1 score: desired change decrease; for MMP-1 score: desired change increase; for EGFR score: desired no change or increase
Procedure: In the “HDF-3CGF” system, dermal fibroblast cells, usually primary human dermal fibroblast cells are cultured alone or in the presence of lung epithelial cells, usually primary human lung epithelial cells, with two or more factors selected from: TNF, IL-1, IFNγ, EGF, bFGF+HSPG (heparan sulfate proteoglycan), and PDGFbb. In some embodiments three or more factors are present, four or more, five or more, or all six factors are present.
Human neonatal dermal fibroblasts (HDFn) or adult lung fibroblasts (HDFp) or fibroblasts from tissues such as liver, heart, or kidney are used. Cells are cultured at 3×10^4 cells/ml in DMEM/F12 (50/50) from Cellgro, supplemented with LSGS kit (from Cascade Biologics); fetal bovine serum, 2% v/v, hydrocortisone 100 nM, human epidermal growth factor 10 ng/ml, basic fibroblast growth factor 3 ng/ml and heparin 10 μg/ml, and penicillin/streptomycin amphotericin B solution (PSA), until confluency. Medium is replaced with DMEM/F12 with only penicillin/streptomycin amphotericin B solution (PSA), then 24 hours later, the following are applied:
After another 24, 48 or 72 hours incubation (37° C., 5% CO2) the cultures are evaluated for the following parameters: ICAM, VCAM, CD40, CD90, IP-10, MCP-1, Collagen I, Mig, m-CSF, TIMP-2, PAI-I, IL-8, Collagen III, HLA-DR, MMP-1, MMP-9, proliferation, TGF-b1, eotaxin-3, decorin, alpha-SMC, MLCK, I-TAC, EGFR, TIMP-1.
Cell culture. […] Human dermal fibroblasts were pooled from 3 donors, cultured according to standard methods, and plated confluent 24 h before stimulation. Cell culture medium for all systems containing fibroblasts and keratinocytes contained low hydrocortisone. […] Concentrations/amounts of agents added to confluent microtiter plates to build each system: cytokines (IL-1β, 1 ng/ml; TNF-α, 5 ng/ml; IFN-γ, 20 ng/ml; IL-4, 5 ng/ml), activators (SAg, 20 ng/ml; histamine, 10 μM; zymosan, 10 μg/ml; or LPS, 2 ng/ml), growth factors (TGF-β, 5 ng/ml; EGF, bFGF, and PDGF-BB, 10 ng/ml), and PBMC (7.5×10^4 cells/well) or macrophages (3.5×10^4 cells/well).

SMILES | TF score [1] | MMP-1 score (Fibroblasts [2]) | Score (Fraction correctly modulated parameters out of 45-58 total) (human primary cells) | uPA score [3] | PAI-1 score [3] | EGFR score [3] | PAI-1 score (Fibroblasts [4]) | inhibit PAI-1 in the HDFT system (Fibroblasts [4]) | HLA-DR score [5] | MMP-1 score [5] | uPA score [5] | PAI-1 score [5] | EGFR score [5] | HLA-DR score [6] | uPAR score [6] | PAI-1 score (Fibroblasts [7]) | MMP-1 score (Fibroblasts [7]) | EGFR score (Fibroblasts [7])
Cn1cnc([N+](=O)[O-])c1Sc1ncnc2nc[nH]c12 [Azathioprine] | 0 | 0 | 0.12 | 0 | 0 | 0 | 0 | none of these inhibit PAI-1 | 0 | 0 | 0 | 0 | 0 | 0 | 0 | 0 | 0 | 0
CCc1oc2ccccc2c1C(=O)c1cc(Br)c(O)c(Br)c1 [Benzbromarone] | 0 | 0 | 0.36 | 1 | 0 | 0 | 1 |  | 0 | 1 | 0 | 1 | 0 | 0 | 0 | 1 | 0 | 0
C=C1CC[C@H](O)C/C1=C/C=C1\CCC[C@]2(C)[C@@H]([C@H](C)/C=C/[C@H](C)C(C)C)CC[C@@H]12 [Calciferol] | 0 | 0 | 0.29 | 1 | 0 | 0 | 1 |  | 0 | 1 | 0 | 0 | 0 | 0 | 1 | 1 | 0 | 0
COc1cc2c(c(OC)c1OC)-c1ccc(OC)c(=O)cc1[C@@H](NC(C)=O)CC2 [Colchicine] | 0 | 0 | 0.17 | 1 | 0 | 0 | 0 | none of these inhibit PAI-1 | 0 | 0 | 0 | 0 | 0 | 0 | 0 | 0 | 0 | 0
O=C(O)c1ccccc1Nc1cccc(C(F)(F)F)c1 [Flufenamic Acid] | 0 | 1 | 0.28 | 0 | 1 | 0 | 1 |  | 0 | 0 | 0 | 1 | 0 | 0 | 0 | 0 | 0 | 0
Fc1ccc(C(OCCN2CCN(CCCc3ccccc3)CC2)c2ccc(F)cc2)cc1 [GBR 12909] | 0 | 0 | 0.29 | 0 | 0 | 0 | 1 |  | 0 | 1 | 0 | 0 | 0 | 0 | 0 | 1 | 0 | 0
CCCCN(CCCC)CCC(O)c1cc2c(Cl)cc(Cl)cc2c2cc(C(F)(F)F)ccc12 (stereo not shown) [Halofantrine] | 0 | 0 | 0.27 | 0 | 0 | 0 | 1 |  | 0 | 1 | 0 | 0 | 0 | 0 | 0 | 1 | 0 | 0
CCN(CC)CCNc1ccc(CO)c2sc3ccccc3c(=O)c12 [Hycanthone] | 1 | 0 | 0.28 | 0 | 1 | 0 | 1 |  | 0 | 0 | 0 | 1 | 0 | 0 | 0 | 1 | 0 | 0
O=c1cc(-c2ccc(O)c(O)c2)oc2cc(O)cc(O)c12 [Luteolin] | 1 | 0 | 0.36 | 0 | 0 | 0 | 1 |  | 0 | 0 | 0 | 0 | 0 | 0 | 0 | 1 | 0 | 0
COC(=O)Nc1nc2ccc(SC(C)C)cc2[nH]1 [Methiazole] | 1 | 0 | 0.55 | 0 | 1 | 0 | 1 |  | 0 | 0 | 0 | 1 | 0 | 0 | 0 | 1 | 0 | 0
